Results from patent publication US12187727B2, “Methods for antagonizing a melanocortin 4 receptor” (Pfizer Inc., priority 2020, dated 2025).

biological target: human Melanocortin-4 receptor (MC4R) (Homo sapiens (Human), UniProt P32245); assay: Functional in vitro MC4R antagonist potency assay (cAMP HTRF in CHO cells); type: cell-based; details: human MC4R in CHO cells, cAMP HTRF, 200 nM aMSH challenge; Kb from IC50 by Leff-Dougall equation; geometric mean; read-out: Kb (nM) Antagonist geometric
Protocol: Example BB. Functional In Vitro MC4R Antagonist Potency Assay
The functional in vitro antagonist potency for test compounds was determined by monitoring intracellular cyclic adenosine monophosphate (cAMP) levels in Chinese hamster ovary (CHO—) cells stably expressing the human Melanocortin-4 receptor (MC4R). Following agonist activation, human MC4R associates with the G-protein complex causing the Gα subunit to exchange bound GDP for GTP, followed by dissociation of the Ga-GTP complex. The activated Gα subunit can couple to downstream effectors to regulate the levels of second messengers or cAMP within the cell. Thereby, determination of intracellular cAMP levels allows for pharmacological characterization. Intracellular cAMP levels are quantitated using a homogenous assay utilizing the Homogeneous Time-Resolved Fluorescence (HTRF) technology from CisBio. The method is a competitive immunoassay between native cAMP produced by cells and the cAMP labelled with the acceptor dye, d2. The two entities then compete for binding to a monoclonal anti-cAMP antibody labeled with cryptate. The specific signal is inversely proportional to the concentration of cAMP in the cells.
Test compounds were solubilized to 30 mM in 100% dimethyl sulfoxide (DMSO) and stored. […] The final compound concentration range in the assay was 400 nM to […], with a final DMSO concentration of 0.1%.
(95% O2: 5% CO2) overnight, with micro-clime lids (Labcyte, Cat No. LLS-0310). […] Cells were incubated with compound for 30 minutes at 37° C. (95% O2: 5% CO2) before addition of 5 μL EC80, agonist stimulation (200 nM α-melanocyte stimulating hormone, aMSH, Bachem) and another 30-minute incubation at 37° C. (95% O2: 5% CO2). Intracellular cAMP levels were quantified as per Cisbio's protocol (5 uL of D2 and then 5 uL Cryptate, incubated for 1-2 hours at room temperature).
Data expressed as nM cAMP were then normalized to control wells using Activity Base (IDBS). Zero percent effect (ZPE) was defined as nM of cAMP generated from ECK, agonist stimulation (200 nM aMSH). In the absence of an antagonist control compound, one hundred percent effect (HPE) was defined as nM of cAMP generated from assay buffer/vehicle only.

Sequence of human Melanocortin-4 receptor (MC4R) (P32245 whole entry): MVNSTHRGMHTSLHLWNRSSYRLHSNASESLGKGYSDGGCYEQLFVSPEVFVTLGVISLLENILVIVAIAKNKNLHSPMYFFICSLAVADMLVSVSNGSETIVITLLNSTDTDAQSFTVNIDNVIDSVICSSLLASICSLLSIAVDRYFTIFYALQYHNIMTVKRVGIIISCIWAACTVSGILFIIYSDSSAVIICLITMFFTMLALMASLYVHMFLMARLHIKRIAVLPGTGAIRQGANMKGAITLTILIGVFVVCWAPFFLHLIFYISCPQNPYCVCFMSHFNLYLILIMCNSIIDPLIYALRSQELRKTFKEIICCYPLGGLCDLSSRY

Row | Compound | Kb
1 | COc1cc([C@@H](C)C(=O)N2CC[C@]3(CCc4cc(-c5nnn(C)n5)c(C)nc4N3)C2)c(F)cn1 [Example 116, (2R)-2-(5-fluoro-2-methoxypyridin-4-yl)-1-[(2R)-7-methyl-6-(2-methyl-2H-tetrazol-5-yl)-3,4-dihydro-1H-spiro[1,8-naphthyridine-2,3′-pyrrolidin]-1′-yl]propan-1-one] | 1.7 nM
2 | COc1cc([C@@H](C)C(=O)N2CC[C@@]3(CCc4cc(-c5nc6ccccn6n5)c(C)nc4N3)C2)c(Cl)cn1 [Example 117, (2R)-2-(5-chloro-2-methoxypyridin-4-yl)-1-[(2S)-7-methyl-6-([1,2,4]triazolo[1,5-a]pyridin-2-yl)-3,4-dihydro-1H-spiro[1,8-naphthyridine-2,3′-pyrrolidin]-1′-yl]propan-1-one] | 0.07 nM
3 | COc1cc([C@@H](C)C(=O)N2CC[C@@]3(CCc4cc(-c5cnn(C)n5)c(C)nc4N3)C2)c(F)cn1 [Example 118, (2R)-2-(5-fluoro-2-methoxypyridin-4-yl)-1-[(2S)-7-methyl-6-(2-methyl-2H-1,2,3-triazol-4-yl)-3,4-dihydro-1H-spiro[1,8-naphthyridine-2,3′-pyrrolidin]-1′-yl]propan-1-one] | 0.93 nM
4 | COc1cc([C@@H](C)C(=O)N2CC[C@@]3(CCc4cc(-c5cnn(C)n5)c(C)nc4N3)C2)c(Cl)cn1 [Example 119, (2R)-2-(5-chloro-2-methoxypyridin-4-yl)-1-[(2S)-7-methyl-6-(2-methyl-2H-1,2,3-triazol-4-yl)-3,4-dihydro-1H-spiro[1,8-naphthyridine-2,3′-pyrrolidin]-1′-yl]propan-1-one] | > 1.1 nM
5 | COc1cc([C@@H](C)C(=O)N2CC[C@@]3(CCc4cc(-c5nc(C(F)F)n(C)n5)c(C)nc4N3)C2)c(Cl)cn1 [Example 120, (2R)-2-(5-chloro-2-methoxypyridin-4-yl)-1-{(2S)-6-[5-(difluoromethyl)-1-methyl-1H-1,2,4-triazol-3-yl]-7-methyl-3,4-dihydro-1H-spiro[1,8-naphthyridine-2,3′-pyrrolidin]-1′-yl}propan-1-one] | 0.08 nM
6 | Cc1nc2c(cc1-c1nc(C(F)F)n(C)n1)CC[C@@]1(CCN(C(=O)Cc3ccc(F)c(F)c3)C1)N2 [Example 121, 1-{(2S)-6-[5-(difluoromethyl)-1-methyl-1H-1,2,4-triazol-3-yl]-7-methyl-3,4-dihydro-1H-spiro[1,8-naphthyridine-2,3′-pyrrolidin]-1′-yl}-2-(3,4-difluorophenyl)ethan-1-one] | 4 nM
7 | COc1cc([C@@H](C)C(=O)N2CC[C@@]3(CCc4cc(-c5nc(C(F)F)n(C)n5)c(C)nc4N3)C2)c(F)cn1 [Example 122, (2R)-1-{(2S)-6-[5-(difluoromethyl)-1-methyl-1H-1,2,4-triazol-3-yl]-7-methyl-3,4-dihydro-1H-spiro[1,8-naphthyridine-2,3′-pyrrolidin]-1′-yl}-2-(5-fluoro-2-methoxypyridin-4-yl)propan-1-one] | 0.11 nM
8 | COc1cc([C@@H](C)C(=O)N2CC[C@@]3(CCc4cc(C5CCOCC5)c(C)nc4N3)C2)c(F)cn1 [Example 131, (2R)-2-(5-fluoro-2-methoxypyridin-4-yl)-1-[(2S)-7-methyl-6-(oxan-4-yl)-3,4-dihydro-1H-spiro[1,8-naphthyridine-2,3′-pyrrolidin]-1′-yl]propan-1-one] | 16 nM
9 | COc1cc([C@@H](C)C(=O)N2CC[C@@]3(CCc4cc(-c5cn(C(F)F)c(C)n5)c(C)nc4N3)C2)c(F)cn1 [Example 138, (2R)-1-{(2S)-6-[1-(difluoromethyl)-2-methyl-1H-imidazol-4-yl]-7-methyl-3,4-dihydro-1H-spiro[1,8-naphthyridine-2,3′-pyrrolidin]-1′-yl}-2-(5-fluoro-2-methoxypyridin-4-yl)propan-1-one] | 0.44 nM
10 | COc1cc([C@@H](C)C(=O)N2CC[C@@]3(CCc4cc(-c5ccc(F)cn5)c(C)nc4N3)C2)c(F)cn1 [Example 139, (2R)-2-(5-fluoro-2-methoxypyridin-4-yl)-1-[(2S)-6-(5-fluoropyridin-2-yl)-7-methyl-3,4-dihydro-1H-spiro[1,8-naphthyridine-2,3′-pyrrolidin]-1′-yl]propan-1-one] | 21 nM
11 | COc1cc([C@@H](C)C(=O)N2CC[C@@]3(CCc4cc(-c5ccccn5)c(C)nc4N3)C2)c(F)cn1 [Example 140, (2R)-2-(5-fluoro-2-methoxypyridin-4-yl)-1-[(2S)-7-methyl-6-(pyridin-2-yl)-3,4-dihydro-1H-spiro[1,8-naphthyridine-2,3′-pyrrolidin]-1′-yl]propan-1-one] | 19 nM

Second part, the compound after the results:

Row | Kb | Compound
12 | 29 nM | COc1cc([C@@H](C)C(=O)N2CC[C@@]3(CCc4cc(-c5ccnnc5)c(C)nc4N3)C2)c(F)cn1 [Example 141, (2R)-2-(5-fluoro-2-methoxypyridin-4-yl)-1-[(2S)-7-methyl-6-(pyridazin-4-yl)-3,4-dihydro-1H-spiro[1,8-naphthyridine-2,3′-pyrrolidin]-1′-yl]propan-1-one]
13 | 2.6 nM | COc1cc([C@@H](C)C(=O)N2CC[C@@]3(CCc4cc(-c5nccc(C(F)(F)F)n5)c(C)nc4N3)C2)c(F)cn1 [Example 143, (2R)-2-(5-fluoro-2-methoxypyridin-4-yl)-1-{(2S)-7-methyl-6-[4-(trifluoromethyl)pyrimidin-2-yl]-3,4-dihydro-1H-spiro[1,8-naphthyridine-2,3′-pyrrolidin]-1′-yl}propan-1-one]
14 | 8.5 nM | COc1cc([C@@H](C)C(=O)N2CC[C@@]3(CCc4cc(-c5ncc(Cl)cn5)c(C)nc4N3)C2)c(F)cn1 [Example 144, (2R)-1-[(2S)-6-(5-chloropyrimidin-2-yl)-7-methyl-3,4-dihydro-1H-spiro[1,8-naphthyridine-2,3′-pyrrolidin]-1′-yl]-2-(5-fluoro-2-methoxypyridin-4-yl)propan-1-one]
15 | 54 nM | COc1cc([C@@H](C)C(=O)N2CC[C@@]3(CCc4cc(-c5ncc(C(F)(F)F)cn5)c(C)nc4N3)C2)c(F)cn1 [Example 145, (2R)-2-(5-fluoro-2-methoxypyridin-4-yl)-1-{(2S)-7-methyl-6-[5-(trifluoromethyl)pyrimidin-2-yl]-3,4-dihydro-1H-spiro[1,8-naphthyridine-2,3′-pyrrolidin]-1′-yl}propan-1-one]
16 | 1.2 nM | COc1cc([C@@H](C)C(=O)N2CC[C@@]3(CCc4cc(-c5ncc(F)cn5)c(C)nc4N3)C2)c(F)cn1 [Example 146, (2R)-2-(5-fluoro-2-methoxypyridin-4-yl)-1-[(2S)-6-(5-fluoropyrimidin-2-yl)-7-methyl-3,4-dihydro-1H-spiro[1,8-naphthyridine-2,3′-pyrrolidin]-1′-yl]propan-1-one]
17 | 0.57 nM | COc1cc([C@@H](C)C(=O)N2CC[C@@]3(CCc4cc(-c5nc6n(n5)CCC6(F)F)c(C)nc4N3)C2)c(F)cn1 [Example 147, (2R)-1-[(2S)-6-(7,7-difluoro-6,7-dihydro-5H-pyrrolo[12-b][1,2,4]triazol-2-yl)-7-methyl-3,4-dihydro-1H-spiro[1,8-naphthyridine-2,3′-pyrrolidin]-1′-yl]-2-(5-fluoro-2-methoxypyridin-4-yl)propan-1-one]
18 | 9 nM | COc1cc([C@@H](C)C(=O)N2CC[C@@]3(CCc4cc(-c5cnsc5)c(C)nc4N3)C2)c(F)cn1 [Example 150, (2R)-2-(5-fluoro-2-methoxypyridin-4-yl)-1-[(2S)-7-methyl-6-(1,2-thiazol-4-yl)-3,4-dihydro-1H-spiro[1,8-naphthyridine-2,3′-pyrrolidin]-1′-yl]propan-1-one]

same assay, conditions: read-out: Kb (nM) Antagonist geometric mean

Row | Kb | Compound
19 | 14 nM | COc1cnc(-c2cc3c(nc2C)N[C@@]2(CC3)CCN(C(=O)[C@H](C)c3cc(OC)ncc3F)C2)nc1 [Example 67, (2R)-2-(5-fluoro-2-methoxypyridin-4-yl)-1-[(2S)-6-(5-methoxypyrimidin-2-yl)-7-methyl-3,4-dihydro-1H-spiro[1,8-naphthyridine-2,3′-pyrrolidin]-1′-yl]propan-1-one]
20 | 17 nM | Cc1nc2c(cc1-c1ncccn1)CC[C@@]1(CCN(C(=O)Cc3ccc(C(F)(F)F)cc3)C1)N2 [Example 73, 1-[(2S)-7-methyl-6-(pyrimidin-2-yl)-3,4-dihydro-1H-spiro[1,8-naphthyridine-2,3′-pyrrolidin]-1yl]-2-[4-(trifluoromethyl)phenyl]ethan-1-one]
21 | 0.6 nM | [2H]C([2H])([2H])Oc1cc([C@@H](C)C(=O)N2CC[C@@]3(CCc4cc(-c5ncccn5)c(C)nc4N3)C2)c(F)cn1 [Example 74, (2R)-2-{5-fluoro-2-[(^2H3)methyloxy]pyridin-4-yl}-1-[(2S)-7-methyl-6-(pyrimidin-2-yl)-3,4-dihydro-1H-spiro[1,8-naphthyridine-2,3′-pyrrolidin]-1′-yl]propan-1-one]
